The text below walks through data of patent US7276492B2, “Use of ACE inhibitors for treatment of patients suffering from behavioral disorders” (priority 2000, dated 2007).

In data set [1] the test system is temper, rage and outburst behavior disorder (TROBD). Description: Example 1: lisinopril regimen in a patient suffering from TROBD. Type of data set: in vivo, human. Conditions: for relief of TROBD by prior treatments: prior treatments of the same patient, before lisinopril. The text has this: The TROBD was an endogenous behavioral disorder. […] When confined to their room, the patient would act out with banging and stomping. Episodes were accompanied by physiological changes including dilation of pupils, expressionless face and a rise in blood pressure.
With lisinopril medication as noted above over a period of about four weeks, definite changes in behavior were evident. […] At home, they retreated from a situation triggering the event to their room, where they remained quiet.
Each of the three episodes occurred at school. In one episode, the patient was working on a computer and refused to give up their work station when their allotted time had been used up. […] A second episode was triggered when the patient was asked to make up a class they had missed. They refused to go to the class but voluntarily moved themself to a “cooling room” to allow their temper to subside. They again, when so instructed, walked to the school office without being physically coerced. In a third episode, the patient was asked to leave the classroom because they would not stop talking during a quiet time. In this case, there was a limited degree of acting out in that, while sitting in a chair, they kicked a desk which was knocked over. They then allowed themself to be escorted by police officers to the school office without being physically coerced. In the office, they kicked another desk and was taken by ambulance to a children's hospital for evaluation.

The subject of a further data set is central nervous system. Conditions: of the persons treated; cited from earlier work.
Setting [2] is: under treatment, approximately two and one-half months.

In the case of `C[C@H](N)Cc1ccccc1` [dextroamphetamine], the “relief of TROBD by prior treatments” value in data set [1] was “ineffective to provide adequate relief”.
As to `CCOC(=O)[C@H](CCc1ccccc1)N[C@@H](C)C(=O)N1CCC[C@H]1C(=O)O` [enalapril], the “incidence of dream abnormality” value in the data set with central nervous system was “less than one”.
As to `CCC(=O)O[C@@H](O[P@](=O)(CCCCc1ccccc1)CC(=O)N1C[C@H](C2CCCCC2)C[C@H]1C(=O)O)C(C)C` [fosinopril], in the data set with central nervous system, the “incidence of behavior change” value was “less than one”, the “incidence of memory disturbance” value is recorded as “less than one” and the “incidence of mood change” value was “less than one”.
`NCCCC[C@H](N[C@@H](CCc1ccccc1)C(=O)O)C(=O)N1CCC[C@H]1C(=O)O` [lisinopril]: the “violent outburst during episodes” value in data set [1] (lisinopril 10 mg per day oral, about four weeks) is “without violent outburst”. In addition, in data set [1] (lisinopril 10 mg per day oral, about four weeks, prior to medication approximately twenty minutes per episode), the “duration of episodes of rage and/or violent behavior” value was “five to ten”. Besides, in data set [1] (lisinopril 10 mg per day oral, about four weeks, prior to medication two to four episodes per week), the frequency of episodes entry is recorded as “approximately one”. Further, in data set [1] (setting [2]), the “blood pressure during the three most marked temper-related episodes” value is listed as 128/64, the “degree of violence in episodes compared to behavior prior to treatment” value is reported as “significantly reduced” and the dilation of pupils entry is recorded as “no noticeable dilation of pupils”.
Regarding `COC(=O)C(c1ccccc1)C1CCCCN1` (stereo not shown) [methylphenidate], in data set [1], the “relief of TROBD by prior treatments” value is “ineffective to provide adequate relief”.
For `CCOC(=O)[C@H](CCc1ccccc1)N[C@@H](C)C(=O)N1Cc2cc(OC)c(OC)cc2C[C@H]1C(=O)O` [moexipril], in the data set with central nervous system, the “incidence of mood change” value is listed as “less than one”.
